Broadly, the IC50 is the midpoint of a concentration-inhibition curve.

Here are results for eleven compounds from US7763728B2, “Tetrahydropyridothiophenes” (4SC AG, priority 2005, dated 2010).

The test system of experiment [1] is RKO (RKOp27) human colon adenocarcinoma cells. The experiment can be described thus: Alamar Blue cell viability assay, anti-proliferative/cytotoxic activity on proliferating (uninduced) RKOp27 cells. Type of experiment: cell-based. To be noted: 72 hours incubation, absence of the inducer Ponasterone A, read-out: IC50 RKO p27 uninduced (proliferating). An outline of the steps: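 RKOp27 subclones seeded at 5000 cells/well, compounds added after 24 h in DMEM/10% FCS, quadruplicates, 72 h at 37 °C, 5% CO2. Alamar Blue fluorescence (ex 544/em 590 nm) normalised to untreated cells (1% DMSO medium) as 100%; IC50 from concentration-effect curves.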

For experiment [2], the system named is RKO colon adenocarcinoma cells (RKOp27) arrested by the expression of ectopic p27Kip1. Description: Alamar Blue cell viability assay on RKOp27 cells arrested by p27Kip1 expression induced by Ponasterone A. It counts as cell-based. The conditions noted are these: Homo sapiens, 72 hours incubation, 10 μM Ponasterone A, read-out: IC50 RKO p27 induced (arrested). An outline of the steps:
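RKOp27 cells, 15000/well, held in DMEM with 10% FCS and with or without 10 μM Ponasterone A to induce p27Kip1 arrest. Compound dilutions added 24 h after seeding, then 72 h at 37 °C in quadruplicate. Alamar Blue fluorescence (544/590 nm) gave % viability relative to untreated cells.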

A value given as a limit tells only on which side of the number the result lay.

Consider `COc1ccccc1CCC(=O)Nc1sc2c(c1C#N)CCN(C(=O)COC(C)=O)C2` [Example 7, Acetic acid 2-{3-cyano-2-[3-(2-methoxy-phenyl)-propanoylamino]-4,7-dihydro-5H-thieno[2,3-c]pyridin-6-yl}-2-oxo-ethyl ester], for which the IC50 in experiment [1] is no more than 300 nM; in experiment [2] it was greater than 100000 nM.
In the same order, the values of `COCCC(=O)N1CCc2c(sc(NC(=O)CCc3cc(C)ccc3OC)c2C#N)C1` [Example 32, N-[3-Cyano-6-(3-methoxy-propanoyl)-4,5,6,7-tetrahydro-thieno[2,3-c]pyridin-2-yl]-3-(2-methoxy-5-methyl-phenyl)-propionamide] are 300 to 2000 nM and greater than 100000 nM.
As to `COc1ccccc1C(C)CC(=O)Nc1sc2c(c1C#N)CCN(C(=O)CCc1ccncc1)C2` (racemic) [Example 120, (RS)—N-[3-Cyano-6-(3-pyridin-4-yl-propanoyl)-4,5,6,7-tetrahydro-thieno[2,3-c]pyridin-2-yl]-3-(2-methoxy-phenyl)-butyramide], the IC50 in experiment [1] is no more than 300 nM; in experiment [2], no less than 10000 nM.
In the same order, the values of `COc1ccccc1C(C)CC(=O)Nc1sc2c(c1C#N)CCN(C(=O)Cn1ccnc1)C2` (racemic) [Example 82, (RS)—N-[3-Cyano-6-(2-Imidazol-1-yl-ethanoyl)-4,5,6,7-tetrahydro-thieno[2,3-c]pyridin-2-yl]-3-(2-methoxy-phenyl)-butyramide] are 300 to 2000 nM and no less than 40000 nM.
As to `CCOc1ccccc1CCC(=O)Nc1sc2c(c1C#N)CCN(C(=O)CCc1nccn1C)C2` [Example 117, N-{3-Cyano-6-[3-(1-methyl-1H-imidazol-2-yl)-propanoyl]-4,5,6,7-tetrahydro-thieno[2,3-c]pyridin-2-yl}-3-(2-ethoxy-phenyl)-propionamide], the IC50 in experiment [1] is no more than 300 nM; in experiment [2], no less than 10000 nM.
For `COCC(=O)N1CCc2c(sc(NC(=O)CCc3cc(C)ccc3OC)c2C#N)C1` [Example 33, N-[3-Cyano-6-(2-methoxy-ethanoyl)-4,5,6,7-tetrahydro-thieno[2,3-c]pyridin-2-yl]-3-(2-methoxy-5-methyl-phenyl)-propionamide] the same measures were 300 to 2000 nM and greater than 100000 nM.
For `CCOc1ccccc1CCC(=O)Nc1sc2c(c1C#N)CCN(C(=O)Cn1cnc(C)c1)C2` [Example 140, N-{3-Cyano-6-[2-(4-methyl-imidazol-1-yl)-ethanoyl]-4,5,6,7-tetrahydro-thieno[2,3-c]pyridin-2-yl}-3-(2-ethoxy-phenyl)-propionamide], the IC50 is no more than 300 nM in experiment [1] and no less than 40000 nM in experiment [2].
As to `COc1ccc(C)cc1CCC(=O)Nc1sc2c(c1C#N)CCN(C(=O)CCc1ccccn1)C2` [Example 96, N-[3-Cyano-6-(3-pyridin-2-yl-propanoyl)-4,5,6,7-tetrahydro-thieno[2,3-c]pyridin-2-yl]-3-(2-methoxy-5-methyl-phenyl)-propionamide], the IC50 in experiment [1] was 300 to 2000 nM; in experiment [2], greater than 100000 nM.
For the compound `COc1ccc(C)cc1CCC(=O)Nc1sc2c(c1C#N)CCN(C(=O)Cn1cnc(C)c1)C2` [Example 141, N-{3-Cyano-6-[2-(4-methyl-imidazol-1-yl)-ethanoyl]-4,5,6,7-tetrahydro-thieno[2,3-c]pyridin-2-yl}-3-(2-methoxy-5-methyl-phenyl)-propionamide], the IC50 is 300 to 2000 nM in experiment [1] and no less than 40000 nM in experiment [2].
As to `COc1cccc(CCC(=O)Nc2sc3c(c2C#N)CCN(C(=O)CCc2nccn2C)C3)c1` [Example 115, N-{3-Cyano-6-[3-(1-methyl-1H-imidazol-2-yl)-propanoyl]-4,5,6,7-tetrahydro-thieno[2,3-c]pyridin-2-yl}-3-(3-methoxy-phenyl)-propionamide], the results for the IC50 in experiment [1] and in experiment [2] were 300 to 2000 nM and no less than 40000 nM, respectively.
For `COCCOCC(=O)N1CCc2c(sc(NC(=O)CCc3cccc(OC)c3)c2C#N)C1` [Example 30, N-{3-Cyano-6-[2-(2-methoxy-ethoxy)-ethanoyl]-4,5,6,7-tetrahydro-thieno[2,3-c]pyridin-2-yl}-3-(3-methoxy-phenyl)-propionamide] the same measures were 300 to 2000 nM and greater than 100000 nM.
